We go through 19 compounds from the Deep4Chem optical property database.

One series can be described thus: solvent given as SMILES. To be noted: in C1CCCCC1.
Take `CCC1(CC)c2cc(C=C(C#N)C#N)ccc2-c2ccc(N(C)C)cc21`: the emission maximum turned out to be 528 nm.

In turn, `COc1cc(OC)c2c(c1)C(=O)c1ccccc1-2` came in with an emission maximum of 537 nm.

The same series, now with this note: in C1CCOC1.
Turning to `CCOc1cc2c(cc1/C=C/C1=CC(=C(C#N)C#N)CC(C)(C)C1)c1ccccc1n2CC`, the emission maximum is listed as 610 nm.

In the case of `CCN1c2ccc(/C=N/Nc3ccccn3)cc2Sc2cc(/C=N/Nc3ccccn3)ccc21`, the emission maximum came out at 495 nm.

`COc1cc(/C=C/c2ccccn2)c(OC)cc1C=O`: the emission maximum amounted to 446 nm.

Consider `O=P1(c2ccccc2)C(c2ccc(N(c3ccccc3)c3ccccc3)cc2)=Cc2ccccc21` (stereo not given), for which the emission maximum was found to be 521 nm.

Still in this series, the particulars now being: in C1COCCO1.
`c1ccc(-c2nc(-c3ccc(-c4nc(-c5ccccc5)c(-c5ccccc5)o4)cc3)oc2-c2ccccc2)cc1` yielded an emission maximum of 428 nm.

The series is the same for the next values; noted with them: in CC#N.
Turning to `CCOc1cc2c(cc1/C=C/C1=CC(=C(C#N)C#N)CC(C)(C)C1)c1ccccc1n2CC`, the emission maximum turned out to be 629 nm.

`CCC1(CC)c2cc(C=C(C#N)C#N)ccc2-c2ccc(N(C)C)cc21` gave an emission maximum of 688 nm.

Turning to `COc1cc(OC)c2c(c1)C(=O)c1ccccc1-2`, the emission maximum stood at 592 nm.

Consider `N#Cc1nn(-c2cc(F)cc(F)c2)nc1N1CCCC1`, for which the emission maximum was found to be 435 nm.

Take `Cc1ccc2oc(-c3cc4cc(C)ccc4oc3=O)cc2c1`: the emission maximum is on record as 445 nm.

For the compound `COc1cc(/C=C/c2ccccn2)c(OC)cc1C=O`, the emission maximum was found to be 458 nm.

`c1ccc(N(c2ccccc2)c2ccc(-c3nc4ccccc4n3-c3ccccc3)cc2)cc1` returned an emission maximum of 444 nm.

In turn, `O=P1(c2ccccc2)C(c2ccc(N(c3ccccc3)c3ccccc3)cc2)=Cc2ccccc21` (stereo not given) showed an emission maximum of 577 nm.

The same series, now with this note: in CCO.
As to `CCOc1cc2c(cc1/C=C/C1=CC(=C(C#N)C#N)CC(C)(C)C1)c1ccccc1n2CC`, the emission maximum stood at 632 nm.

Regarding `CCC1(CC)c2cc(C=C(C#N)C#N)ccc2-c2ccc(N(C)C)cc21`, the emission maximum is 677 nm.

`O=c1c2cc(F)c(N3CCOCC3)cc2oc2cc(N3CCOCC3)c(F)cc12`: the emission maximum was found to be 448 nm.

Still in this series, the particulars now being: in CCOC(C)=O.
Regarding `CCOc1cc2c(cc1/C=C/C1=CC(=C(C#N)C#N)CC(C)(C)C1)c1ccccc1n2CC`, the emission maximum is on record as 591 nm.

`Cc1ccc2oc(-c3cc4cc(C)ccc4oc3=O)cc2c1` showed an emission maximum of 436 nm.

Staying with this series, now noted: in CCOCC.
Compound `CCC1(CC)c2cc(C=C(C#N)C#N)ccc2-c2ccc(N(C)C)cc21` showed an emission maximum of 579 nm.

Staying with this series, now noted: in CN(C)C=O.
For the compound `CCOc1cc2c(cc1/C=C/C1=CC(=C(C#N)C#N)CC(C)(C)C1)c1ccccc1n2CC`, the emission maximum is 635 nm.

Compound `COc1cc(/C=C/c2ccccn2)c(OC)cc1C=O` yielded an emission maximum of 456 nm.

As for `O=P1(c2ccccc2)C(c2ccc(N(c3ccccc3)c3ccccc3)cc2)=Cc2ccccc21` (stereo not given), the emission maximum is listed as 566 nm.

Staying with this series, now noted: in CS(C)=O.
For `CCOc1cc2c(cc1/C=C/C1=CC(=C(C#N)C#N)CC(C)(C)C1)c1ccccc1n2CC`, the emission maximum was determined as 641 nm.

Compound `CCN1c2ccc(/C=N/Nc3ccccn3)cc2Sc2cc(/C=N/Nc3ccccn3)ccc21` yielded an emission maximum of 507 nm.

In turn, `CCC1(CC)c2cc(C=C(C#N)C#N)ccc2-c2ccc(N(C)C)cc21` gave an emission maximum of 711 nm.

The compound `Cc1ccc2oc(-c3cc4cc(C)ccc4oc3=O)cc2c1` yielded an emission maximum of 448 nm.

The series is the same for the next values; noted with them: in Cc1ccccc1.
`CCOc1cc2c(cc1/C=C/C1=CC(=C(C#N)C#N)CC(C)(C)C1)c1ccccc1n2CC` displayed an emission maximum of 578 nm.

`CCN1c2ccc(/C=N/Nc3ccccn3)cc2Sc2cc(/C=N/Nc3ccccn3)ccc21` returned an emission maximum of 491 nm.

The compound `Cc1ccc2oc(-c3cc4cc(C)ccc4oc3=O)cc2c1` displayed an emission maximum of 436 nm.

`COc1cc(/C=C/c2ccccn2)c(OC)cc1C=O` registered an emission maximum of 444 nm.

Consider `O=P1(c2ccccc2)C(c2ccc(N(c3ccccc3)c3ccccc3)cc2)=Cc2ccccc21` (stereo not given), for which the emission maximum was 490 nm.

As for `CC(C)(C)c1ccc2c(c1)c1cc(C(C)(C)C)ccc1n2-c1ccc(C(=C(C#N)C#N)c2ccc(-n3c4ccc(C(C)(C)C)cc4c4cc(C(C)(C)C)ccc43)cc2)cc1`, the emission maximum is reported as 566 nm.

The same series, now with this note: in ClC(Cl)Cl.
`CCOc1cc2c(cc1/C=C/C1=CC(=C(C#N)C#N)CC(C)(C)C1)c1ccccc1n2CC` gave an emission maximum of 608 nm.

Regarding `COc1ccc2c(C=C(C#N)C#N)cc3ccc4cc(C=C(C#N)C#N)c5ccc(OC)cc5c4c3c2c1`, the emission maximum came out at 545 nm.

Regarding `COc1ccc(C2=Cc3c4ccccc4c4ccccc4[n+]3[B-](F)(F)O2)cc1`, the emission maximum is reported as 461 nm.

For the compound `O=P1(c2ccccc2)C(c2ccc(N(c3ccccc3)c3ccccc3)cc2)=Cc2ccccc21` (stereo not given), the emission maximum is on record as 529 nm.

Staying with this series, now noted: in ClCCl.
For `CCOc1cc2c(cc1/C=C/C1=CC(=C(C#N)C#N)CC(C)(C)C1)c1ccccc1n2CC`, the emission maximum is on record as 617 nm.

`CCN1c2ccc(/C=N/Nc3ccccn3)cc2Sc2cc(/C=N/Nc3ccccn3)ccc21`: the emission maximum stood at 498 nm.

Turning to `CCC1(CC)c2cc(C=C(C#N)C#N)ccc2-c2ccc(N(C)C)cc21`, the emission maximum is 631 nm.

`CCOC(=O)c1c(-c2c(Cl)c3ccccc3oc2=O)nn(-c2cccc(Cl)c2)c1C(=O)OCC` returned an emission maximum of 409 nm.

Compound `CCCCCCOc1cc(C=C2C(=O)c3ccccc3C2=O)c(OCCCCCC)cc1C=C1C(=O)c2ccccc2C1=O` returned an emission maximum of 622 nm.

`COC(=O)c1ccc(C2=C3C=c4sc(-c5cccs5)cc4=[N+]3[B-](F)(F)n3c2cc2sc(-c4cccs4)cc23)cc1`: the emission maximum amounted to 716 nm.

As to `CCCCCCCCCCCCN1C(=O)c2c(c3ccc4cc(-c5ccc(N(C)C)cc5)c(OC)cc4c3c3c2ccc2cc(-c4ccc(N(C)C)cc4)c(OC)cc23)C1=O`, the emission maximum worked out at 620 nm.

`COc1cc(/C=C/c2ccccn2)c(OC)cc1C=O` displayed an emission maximum of 455 nm.

`O=P1(c2ccccc2)C(c2ccc(N(c3ccccc3)c3ccccc3)cc2)=Cc2ccccc21` (stereo not given): the emission maximum is given as 544 nm.

The series is the same for the next values; noted with them: in O.
With `CC1(C)C(=O)C=Cc2ccc(N3CCC3)cc21`, the emission maximum is 555 nm.

Take `Cc1ccc2oc(-c3cc4cc(C)ccc4oc3=O)cc2c1`: the emission maximum stood at 498 nm.

The series is the same for the next values; noted with them: in c1ccccc1.
The compound `CCC1(CC)c2cc(C=C(C#N)C#N)ccc2-c2ccc(N(C)C)cc21` displayed an emission maximum of 560 nm.
